Tests used:
[1] = tested on: human embryonic stem cells (hESCs); experiment: Medium component requirement assay, hESCs on laminin/collagen-coated plates for seven days; format: cell-based
Method: (a) Media containing bFGF, insulin, and ascorbic acid sustain the healthy undifferentiated growth of hESCs on laminin/collagen-coated plates. Insulin (20 μg/ml), transferrin (8 μg/ml), albumin (for example, the commercial product known as AlbuMAXI) (10 mg/ml), and ascorbic acid (50 μg/ml) were added to a base medium that consisted of 100% DMEM/F-12 with 20 ng/ml bFGF, 2 mM L-alanyl-L-glutamine, 1×MEM essential amino acids solution, 1×MEM non-essential amino acids solution, and 100 μM β-mercaptoethanol. The degree of differentiation was judged by morphology of the colonies and Oct-4 expression. […] (red). […] However, if ascorbic acid was omitted from the media [D, H, L] […] White arrows in all panels delineate the edge of an hESC colony. The area delineated by the white square in [A], [E], and [I] indicates the approximate area that is visualized at higher magnification in [B, C], [F, G], and [J, K], respectively. [C], [G], and [K] is the image in [B], [F], and [J], respectively, merged with DAPI staining of their nuclei (blue).
(b) When either bFGF or insulin was omitted from the media, hESC colonies appeared to differentiate completely under the feeder- and serum-free conditions. […] The distinct growth effects of insulin and bFGF were further accentuated in media lacking ascorbic acid [C, F] (“NO Ascorbic Acid”). In the absence of ascorbic acid and in media that contained only insulin as the growth factor [C] (phase) (“NO Ascorbic Acid”), slower growth of the differentiated hESCs was observed (compare [A, B] to [C]). In ascorbic-acid-lacking media that contained bFGF as the only growth factor [F] […] White arrows in all panels delineate the edge of hESC colonies.
Having determined that substantial numbers of undifferentiated hESCs could be maintained over long periods in feeder-free environments using the bFGF-supplemented media described above, the necessity of other components in the medium to maintain hESCs in an undifferentiated state was next examined. “Knockout Serum Replacement” contains insulin, transferrin, ascorbic acid, amino acids, and AlbuMAX (a chromatographically-purified lipid-rich bovine serum albumin [BSA] with low IgG content, but nevertheless a xeno-derived product). Accordingly, whether insulin, transferrin, BSA, and ascorbic acid were essential components was assessed, in combination with bFGF, for maintaining hESCs in an undifferentiated state. The serum replacement components insulin (20 μg/ml), transferrin (8 μg/ml), albumin (AlbuMAX) (10 mg/ml), and ascorbic acid (50 μg/ml) were added to a base medium that consisted of DMEM/F-12 or KO-DMEM with bFGF (20 ng/ml), L-alanyl-L-glutamine or L-glutamine (2 mM), MEM essential amino acids solution (1×), MEM nonessential amino acids solution (1×), and β-mercaptoethanol (100 μM). To assay for the differentiation-forestalling activity of each of these components, undifferentiated hESCs were seeded on laminin/collagen-coated plates and cultivated for seven days in media containing one or more of the individual components. The degree of differentiation of the colonies was judged by defining morphology and Oct-4 expression.
When either bFGF or insulin was omitted from the media, more than 90% of the colonies appeared to differentiate completely within the first passage, as indicated by their differentiated morphology (FIG. 2b, A,B,D,E), their complete loss of Oct-4 expression, and their expression of the cell surface marker SSEA-1 (FIG. 2c, B,C). […] The different effects of insulin and bFGF were accentuated further in media lacking ascorbic acid. In the absence of ascorbic acid and in media containing only insulin, the growth of differentiated hESCs was simply slower (FIG. 2b, C). […] Although albumin and transferrin are not crucial components for sustaining the undifferentiated growth of hESCs, they might abet survival or maintenance of a normal colony shape.

[2] = tested on: human embryonic stem cells (hESCs); experiment: Other growth factors in place of bFGF for undifferentiated growth of hESCs; format: cell-based; conditions: feeder- and serum-free conditions
Method: All the growth factors were dissolved in a PBS buffer that contained 0.5% BSA, 1 mM DTT (Dithiothreitol) and 10% glyceral as a 10 μg/ml (500×) stock solution and stored in aliquots at −80° C. These factors were added individually to the hESC cultures at a concentration of 20 ng/ml, in the absence of bFGF or in the presence of a low concentration of bFGF (4 ng/ml). Seven days after seeding undifferentiated hESCs on laminin/collagen-coated plates, the cultures were examined.

[3] = tested on: acetylated histone H3 and H4, Myc, Tip60 HAT, p300 HAT; experiment: Chromatin state immunofluorescence (acetylated H3/H4, Myc, Tip60, p300) in hESCs; format: cell-based, human; conditions: named factor omitted from the media
Description: (c) Presence of both bFGF and insulin is essential for maintenance of an acetylated transcriptionally active chromatin state in undifferentiated hESCs. When either bFGF or insulin is omitted from the media, the differentiated hESC colonies express the differentiation-associated cell surface marker SSEA-1 [B, C] […] (green), Myc [E, F] (red), and histone acetyltransferase (HAT) Tip60 [I, K] (green) and p300 [J, K] […] All cells are indicated by DAPI staining of their nuclei (blue).
To discover the minimal essential conditions needed to support the long-term growth of undifferentiated hESCs, morphological analysis was used to assess the developmental stage of hESCs at different times. For these analyses hESCs were grown in a 6- or 12-well plate to maturation (day 6 or 7 after seeding) before being fixed and visualized under a phase contrast microscope. Cellular immunofluorescence was also employed to assess the state of differentiation of hESCs. […] The state of differentiation of hESC was further assessed by generating (via lentiviral-mediated transduction) hESCs carrying a reporter gene (enhanced green fluorescence protein (EGFP)) under control of the Oct-4 promoter. Using these transfected hESCs (carrying Oct-4 driven EGFP), the undifferentiated state of hESCs can be visualized by green fluorescence (indicating Oct-4 expression). […]

[4] = tested on: human embryonic stem cells (hESCs); experiment: Growth of hESCs on purified matrix protein-coated plates; format: cell-based; conditions: hESC media containing 20 ng/ml bFGF
Description: (e) Characterization of hESCs maintained on matrix protein-coated plates in the defined hESC media - Determining the Minimal Essential Matrix. hESCs maintained on a laminin-coated plate have a classic undifferentiated morphology [A] (phase image) and express Oct-4 [B, C] (red). [C] is the image in [B] merged with DAPI staining of their nuclei (blue). White arrows delineate the edge of an hESC colony. The area delineated by the white square in [A] indicates the approximate area that is visualized at higher magnification in [B, C]. […] Red arrows in [D-F] indicate that the differentiated colony consisted of dense centers containing cyst-like structures and necrotic cells. Laminin, therefore, appeared to be the minimal sufficient matrix protein.
Having established that bFGF, insulin, and ascorbic acid were important minimal components of a feeder-free culture system, the growth of hESCs on purified matrix proteins, including human laminin-, fibronectin-, or collagen IV-coated plates in hESC media containing 20 ng/ml bFGF, was further examined.

O=C1O[C@H]([C@@H](O)CO)C(O)=C1O [ascorbic acid, reference compound]
cyst-like structures and necrotic cells within dense cores of differentiated hESC colonies ([1]; absence of ascorbic acid, media containing only bFGF): became more severe
growth of differentiated hESCs ([1]; absence of ascorbic acid, media containing only insulin): simply slower
appearance of hESC colonies ([1]; ascorbic acid omitted from the media): very dense at their core and necrotic

EGF: epidermal growth factor (NSDSECPLSHDGYCLHDGVCMYIEALDKYACNCVVGYIGERCQYRDLKWWELR; Epidermal growth factor; UniProt P01133 971-1023, looked up)
ability to replace bFGF in supporting undifferentiated growth of hESCs [2]: can not replace bFGF

IGF-I: insulin-like growth factor-I
ability to replace bFGF in supporting undifferentiated growth of hESCs [2]: can not replace bFGF

IGF-II: insulin-like growth factor-II
ability to replace bFGF in supporting undifferentiated growth of hESCs [2]: can not replace bFGF

PDGF: platelet-derived growth factor-AB
ability to replace bFGF in supporting undifferentiated growth of hESCs [2]: can not replace bFGF

VEGF
ability to replace bFGF in supporting undifferentiated growth of hESCs [2]: can not replace bFGF

aFGF: acidic fibroblast growth factor
ability to replace bFGF in supporting undifferentiated growth of hESCs [2]: can not replace bFGF

albumin: chromatographically-purified lipid-rich bovine serum albumin with low IgG content
shape of hESC colonies ([1]; absence of albumin): more flat and spread out

insulin: human recombinant insulin from Sigma, medium component
cell morphology in differentiated colonies ([1]; media that contained only the named growth factor): Large round cells
immunoreactivity to acetylated H3 and H4, Myc, Tip60 HAT, nuclear focal localization of p300 HAT [3]: undetectable or weak immunoreactivity

laminin
hESC colonies remaining undifferentiated (morphology, Oct-4) [4]: more than 80%

transferrin: serum replacement component added at 8 μg/ml
number of hESC colonies ([1]; absence of transferrin): fewer total hESC colonies

Reference: US20080241919A1, “Defined media for pluripotent stem cell culture” (The Burnham Institute of Medical Research, priority 2003, published 2008)
